Source: PubChem BioAssay (NCI)
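Five compound concentrations were applied to cells in 96-well plates for 48 hours; endpoints were derived by simple linear interpolation of the resulting dose-response curve. GI50 marks 50% less growth. The concentration for full growth arrest is given as TGI.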

Experiments:
Test in all cases: DTP human tumour cell line panel, 48 h
OVCAR-8 ovarian = tested on: OVCAR-8 ovarian
U251 CNS = tested on: U251 CNS
NCI-H522 lung = tested on: NCI-H522 lung
CCRF-CEM leukemia = tested on: CCRF-CEM leukemia
IGROV1 ovarian = tested on: IGROV1 ovarian
HOP-92 NSCLC = tested on: HOP-92 NSCLC
LOX IMVI melanoma = tested on: LOX IMVI melanoma
COLO 205 colon = tested on: COLO 205 colon
DU-145 prostate = tested on: DU-145 prostate
T-47D breast = tested on: T-47D breast

| Structure (SMILES) | GI50 (OVCAR-8 ovarian) [µM] | TGI (OVCAR-8 ovarian) [µM] | GI50 (U251 CNS) [µM] | TGI (U251 CNS) [µM] | GI50 (NCI-H522 lung) [µM] | GI50 (CCRF-CEM leukemia) [µM] | TGI (CCRF-CEM leukemia) [µM] | GI50 (IGROV1 ovarian) [µM] | TGI (IGROV1 ovarian) [µM] | GI50 (HOP-92 NSCLC) [µM] | TGI (HOP-92 NSCLC) [µM] | GI50 (LOX IMVI melanoma) [µM] | TGI (LOX IMVI melanoma) [µM] | GI50 (COLO 205 colon) [µM] | TGI (COLO 205 colon) [µM] | TGI (DU-145 prostate) [µM] | TGI (NCI-H522 lung) [µM] | TGI (T-47D breast) [µM] | GI50 (DU-145 prostate) [µM] |
| --- | --- | --- | --- | --- | --- | --- | --- | --- | --- | --- | --- | --- | --- | --- | --- | --- | --- | --- | --- |
| CCC[CH2][Ge]([CH2]CCC)([CH2]CCC)[O]C(=O)CCl | 5.19 | 22 | 0.889 | 16.6 | 0.214 | 0.406 | 17.9 | 3.27 | 18.4 | 0.573 | 8.54 | 1.16 | 3.52 | 10.4 | 24 | – | – | – | – |
| CCCCC[C@@H]1OC(=O)[C@@]2(CC3c4ccccc4C2c2ccccc23)[C@H]1C(=O)OC | – | > 100 | – | > 100 | – | – | > 100 | – | > 100 | – | > 100 | – | > 100 | – | 30.5 | > 100 | – | – | – |
| O=C(O)c1cc2c(cc1CC(Cc1ccccc1)C(=O)O)CCC2 (centres undefined) | – | > 100 | – | > 100 | – | – | > 100 | – | > 100 | – | – | – | > 100 | – | > 100 | > 100 | > 100 | > 100 | – |
| CC1Oc2c(c(O)cc3oc(=O)cc(-c4ccccc4)c23)C(=O)C1C (centres undefined) | – | > 100 | – | > 100 | – | – | > 100 | – | > 100 | – | > 100 | – | > 100 | – | > 100 | – | > 100 | – | – |
| Fc1ccccc1C1SCC2=Nc3ccccc3CN21 (centres undefined) | – | > 100 | – | > 100 | – | – | > 100 | – | – | – | > 100 | – | > 100 | – | > 100 | > 100 | – | > 100 | – |
| CN1C(C(=O)Nc2ccccn2)=C(O)c2ccccc2S1(=O)=O | – | > 100 | – | > 100 | – | – | > 100 | – | – | – | – | – | > 100 | – | > 100 | > 100 | > 100 | > 100 | – |
| CC1=NN(C(=O)Cc2ccccc2)C(=O)/C1=C\c1cccc(O)c1 | – | > 100 | – | > 100 | – | – | > 100 | – | – | – | – | – | > 100 | – | > 100 | – | > 100 | – | – |
| N#Cc1nc(Cc2cccs2)oc1N | – | > 100 | – | > 100 | – | – | > 100 | – | > 100 | – | > 100 | – | > 100 | – | – | > 100 | – | – | – |
| C=C1C(=O)OC2C1CC1OC2C(C)CCC/C(C)=C\CCC1(C)O (centres undefined) | – | 31.4 | – | > 91.1 | – | – | 22.2 | – | 49.5 | – | 30.1 | – | 13.8 | – | 58.1 | – | 26.2 | – | – |
| Oc1cc(Br)cc2cc(Br)cnc12 | – | > 100 | – | – | – | – | 6.27 | – | 12.6 | – | 83.8 | – | > 100 | – | > 100 | 60.8 | 8.2 | 8.41 | – |
| Cc1ccc(Oc2cc(C)ccc2P(=O)(O)O)cc1 | – | > 100 | – | – | – | – | > 100 | – | > 100 | – | > 100 | – | > 100 | – | > 100 | > 100 | > 100 | – | – |
| OCC(CO)CC1COc2ccccc2O1 (centres undefined) | – | > 10 | – | > 10 | – | – | > 10 | – | > 10 | – | – | – | > 10 | – | > 10 | > 10 | > 10 | > 10 | – |
| CC(C)(CN1CCCCC1)C(=O)CC(SCCS(=O)(=O)O)c1ccc(Cl)c(Cl)c1 (centres undefined) | – | 8.45 | – | 19.3 | – | – | 4.69 | – | 13.5 | – | 6.18 | – | – | – | 7.25 | 23.4 | 5.59 | – | – |
| C#Cc1ccccc1C(=O)OC | – | > 100 | – | > 100 | – | – | > 100 | – | > 100 | – | > 100 | – | > 100 | – | > 100 | – | > 100 | – | – |
| Brc1ccc2[nH]cc(-c3nc(-c4c[nH]c5ccncc45)cs3)c2c1 | – | – | – | – | – | 2.24 | 5.14 | – | – | – | – | – | – | – | – | 3.07 | – | – | 1.68 |
| COc1ccc(CNc2cnc3cc(N)ccc3n2)cc1OC | – | > 100 | – | – | – | – | > 100 | – | – | – | – | – | > 100 | – | > 100 | – | > 100 | – | – |
| CC1(C)CN=C(c2ccc3ccccc3c2O)N1 | – | – | – | > 100 | – | – | > 100 | – | > 100 | – | > 100 | – | > 100 | – | > 100 | > 100 | – | > 100 | – |
| COc1ccc(N2C(=O)CSC2c2cc(OC)c(OC)c(OC)c2)cc1 (centres undefined) | – | > 100 | – | 39 | – | – | 35.1 | – | > 100 | – | > 100 | – | 92.9 | – | 54.1 | 72.2 | 73.6 | – | – |
| O/N=C1/CCCCC1NO (centres undefined) | – | > 100 | – | > 100 | – | – | > 100 | – | > 100 | – | – | – | > 100 | – | > 100 | > 100 | – | > 100 | – |
| Cc1ccc(NC(=O)NC23CC4CC(CC(F)(C4)C2)C3)cc1 | – | > 100 | – | > 100 | – | – | > 100 | – | > 100 | – | > 100 | – | > 100 | – | > 100 | – | > 100 | – | – |
| Cn1cnc([N+](=O)[O-])c1Sc1nncc2[nH]cnc12 | – | > 100 | – | > 100 | – | – | > 100 | – | > 100 | – | > 100 | – | > 100 | – | > 100 | – | > 100 | > 100 | – |
| CN(C)CCCN1C(=O)N(CCCN(C)C)c2c3cc(O)ccc3nc3c([N+](=O)[O-])ccc1c23 | – | 37.2 | – | 30.2 | – | – | – | – | 21.3 | – | 36.7 | – | 26.6 | – | 27.5 | 64 | 20.5 | 80.2 | – |
| CN(NC(=O)/C(=C/C=C/c1ccccc1)NC(=O)c1ccccc1)C1=C(Cl)C(=O)[N+](c2ccccc2)=CC1 | – | 40.3 | – | 40.2 | – | – | – | – | 46.8 | – | 80.1 | – | 32.3 | – | 33.7 | > 100 | 61.5 | 38.8 | – |
| O=C(NNc1ccc([N+](=O)[O-])cc1)C1OC(CO)C(O)C1O (centres undefined) | – | > 100 | – | > 100 | – | – | > 100 | – | > 100 | – | > 100 | – | > 100 | – | > 100 | – | – | – | – |
| CC(=O)Oc1ccc(-c2c(OC(C)=O)c(OC(C)=O)c(-c3ccc(OC(C)=O)c(OC(C)=O)c3)c(OC(C)=O)c2OC(C)=O)cc1 | – | 28.2 | – | 36.5 | – | – | 37.4 | – | 28.8 | – | – | – | 31.8 | – | 32 | 29.8 | 18.4 | 29.2 | – |
